The test is described as follows: Type B (low volume, EC formulation, track sprayer 200 L/ha) assay, leaf blotch of wheat, SEPTTR field isolate (FI SEPTTR). The following applies: Zymoseptoria tritici, 72 h, 100 g/ha. The test is classed as in vivo, Mycosphaerella graminicola on wheat plants (variety Yuma). As for the experimental part:
Example A: Evaluation of Fungicidal Activity: Leaf Blotch of Wheat (Mycosphaerella graminicola; Anamorph: Septoria tritici; Bayer Code SEPTTR)
For Type A assays, technical grades of the experimental fungicides in Table 4 below were dissolved in acetone, and then mixed with nine volumes of water containing 110 ppm Triton X-100. The fungicide solutions were applied onto wheat seedlings using an automated booth sprayer. For Type B assays, emulsifiable concentrate (EC) formulations of technical grades of the experimental fungicides in Table 4 below were prepared at 10% (w/v), and then mixed with 150 volumes of 0.1% Trycol 5941. These solutions were applied onto wheat seedlings using an automated track sprayer at 200 L/ha. All sprayed plants were allowed to air dry prior to further handling.
Wheat plants (variety Yuma) were grown from seed in a greenhouse in 50% mineral soil/50% soil-less Metro mix until the first leaf was fully emerged, with 7-10 seedlings per pot. Prior to or after application of experimental fungicides, plants were inoculated either with spores of a standard laboratory SEPTTR isolate (SI SEPTTR) or with spores from a SEPTTR field isolate collected from Wellsbourne, England in 2012 (FI SEPTTR). After inoculation the plants were kept for 3 days at 20° C. in 100% relative humidity (one day in a dark dew chamber followed by two days in a lighted dew chamber). Plants were then transferred to a 20° C. greenhouse for disease development. When disease symptoms were fully expressed on untreated plants, infection levels on treated plants were assessed on a scale of 0 to 100 percent disease severity. Percent disease control was calculated using the ratio of disease severity on treated plants relative to untreated plants.

The mark [1] stands for this setting: SEPTTR field isolate, low volume Type B assay, 3 Day Curative, wheat leaf blotch, read-out: Disease Control, FI SEPTTR Type B Assay (100 g/ha) 3 DC.
The mark [2] stands for this setting: SEPTTR field isolate, low volume Type B assay, 3 Day Protectant, wheat leaf blotch, read-out: Disease Control, FI SEPTTR Type B Assay (100 g/ha) 3 DP.
Where [3] appears, read: field isolate, low volume EC, 3 Day Curative, wheat (Yuma), read-out: Disease Control, FI SEPTTR Type B Assay (100 g/ha) 3 DC.
The mark [4] stands for this setting: field isolate, low volume EC, 3 Day Protectant, wheat (Yuma), read-out: Disease Control, FI SEPTTR Type B Assay (100 g/ha) 3 DP.

The structures appear in SMILES notation. Read-outs that look alike come from different tables or passages of the source.

Take `C#CCOC(CC)(c1cncnc1)c1ccc(-c2ccc(OC(F)(F)F)cc2)cn1` (stereo not shown) [Compound 260]: the pest or weed control at 100 g/ha runs as follows: under setting [1], < 40%; under setting [2], 40 to 59%.

As to `CC#CC(OCC)(c1cncnc1)c1ccc(-c2ccc(OC(F)(F)F)cc2)cn1` (stereo not shown) [Compound 242], the pest or weed control at 100 g/ha under setting [3] was < 40% and the pest or weed control at 100 g/ha under setting [4] lay in the range of 40 to 59%.

Consider `CC(C)(C#N)c1ccc(-c2ccc(C(O)(c3cncnc3)C(C)(C)C)nc2)c(C#N)c1` (stereo not shown) [Compound 175, 5-(2-cyanopropan-2-yl)-2-(6-(1-hydroxy-2,2-dimethyl-1-(pyrimidin-5-yl)propyl)pyridin-3-yl)benzonitrile], for which the pest or weed control at 100 g/ha runs as follows: under setting [3], 80 to 100%; under setting [4], 80 to 100%.

Regarding `COC(c1cncnc1)(c1ccc(-c2ccc(C(C)(C)C#N)cc2)cn1)C(C)(C)C` (stereo not shown) [Compound 214], the pest or weed control at 100 g/ha was < 40% under setting [3] and 80 to 100% under setting [4].

As for `CCOC(c1cncnc1)(c1ccc(-c2ccc(OC(F)(F)F)cc2)cn1)C1CC1` (stereo not shown) [Compound 232], the pest or weed control at 100 g/ha runs as follows: under setting [3], < 40%; under setting [4], 60 to 79%.

`CC(C)(C)C(O)(c1cncnc1)c1ccc(-c2ccc(I)cc2)cn1` (stereo not shown) [Compound 165, 1-(5-(4-iodophenyl)pyridin-2-yl)-2,2-dimethyl-1-(pyrimidin-5-yl)propan-1-ol]: the pest or weed control at 100 g/ha reads like this: under setting [3], 80 to 100%; under setting [4], 80 to 100%.

Take `CC(C)(C)C(O)(c1cncnc1)c1ccc(-c2ccc(F)cc2Cl)cn1` (stereo not shown) [Compound 166]: the pest or weed control at 100 g/ha under setting [3] is 80 to 100% and the pest or weed control at 100 g/ha under setting [4] is 80 to 100%.

For the molecule `CC(C)(C)C(O)(c1cncnc1)c1ccc(-c2ccc(C3(C#N)CCC3)cc2F)cn1` (stereo not shown) [Compound 251], the pest or weed control at 100 g/ha fell in the range of 80 to 100% under setting [3] and 80 to 100% under setting [4].

Turning to `C#CCOC(C#CC)(c1cncnc1)c1ccc(-c2ccc(OC(F)(F)F)cc2F)cn1` (stereo not shown) [Compound 248], the pest or weed control at 100 g/ha is < 40% under setting [3] and 40 to 59% under setting [4].

As to `CCc1cc(C(C)(C)C#N)ccc1-c1ccc(C(O)(c2cncnc2)C(C)(C)C)nc1` (stereo not shown) [Compound 179], the pest or weed control at 100 g/ha under setting [3] was 80 to 100% and the pest or weed control at 100 g/ha under setting [4] lay in the range of 80 to 100%.

With `COc1ncncc1C(O)(c1ccc(-c2ccc(OC(F)(F)F)cc2C)cn1)C(C)(C)C` (stereo not shown) [Compound 222], the pest or weed control at 100 g/ha under setting [3] is 40 to 59% and the pest or weed control at 100 g/ha under setting [4] lay within 60 to 79%.

As to `CC#CC(OC)(c1cncnc1)c1ccc(-c2ccc(OC(F)(F)F)cc2F)cn1` (stereo not shown) [Compound 182], the pest or weed control at 100 g/ha under setting [3] was < 40% and the pest or weed control at 100 g/ha under setting [4] lay within 60 to 79%.

In the case of `C#CCOC(c1cncnc1)(c1ccc(-c2ccc(OC(F)(F)F)cc2)cn1)C1CC1` (stereo not shown) [Compound 255], the pest or weed control at 100 g/ha under setting [3] was < 40% and the pest or weed control at 100 g/ha under setting [4] is 60 to 79%.

Turning to `C#CCOC(c1cncnc1)(c1ccc(-c2ccc(OC(F)(F)F)cc2F)cn1)C(C)(C)C` (stereo not shown) [Compound 189], the pest or weed control at 100 g/ha under setting [3] was 40 to 59% and the pest or weed control at 100 g/ha under setting [4] lay in the range of 80 to 100%.

As to `COC(c1cncnc1)(c1ccc(-c2ccc(OC(F)(F)F)cc2F)cn1)C(C)(C)C` (stereo not shown) [Compound 211], the pest or weed control at 100 g/ha under setting [3] fell in the range of 80 to 100% and the pest or weed control at 100 g/ha under setting [4] was 80 to 100%.

`CC(C)(C)C(O)(c1ccc(-c2ccc(C3(C#N)CC3)cc2)cn1)c1cnccn1` (stereo not shown) [Compound 229]: the pest or weed control at 100 g/ha under setting [3] was 60 to 79% and the pest or weed control at 100 g/ha under setting [4] was 60 to 79%.

Take `CC(C)(C)C(O)(c1ccc(-c2ccc(OC(F)(F)F)cc2F)cn1)c1cnccn1` (stereo not shown) [Compound 271]: the pest or weed control at 100 g/ha is, setting by setting: under setting [1], < 40%; under setting [2], 80 to 100%.

For `COC(c1cncnc1)(c1ccc(-c2ccc(OCC(F)(F)F)cc2)cn1)C(C)(C)C` (stereo not shown) [Compound 257], the pest or weed control at 100 g/ha is, setting by setting: under setting [1], 60 to 79%; under setting [2], 60 to 79%.

Take `COC(c1cncnc1)(c1ccc(-c2ccc(OC(F)(F)F)cc2F)cn1)C(C)C` (stereo not shown) [Compound 249]: the pest or weed control at 100 g/ha under setting [3] was in the range of 60 to 79% and the pest or weed control at 100 g/ha under setting [4] lay within 80 to 100%.

Consider `CCOC(C)(c1cncnc1)c1ccc(-c2ccc(OC(F)(F)F)cc2)cn1` (stereo not shown) [Compound 177], for which the pest or weed control at 100 g/ha is < 40% under setting [3] and 60 to 79% under setting [4].

On to `C#CCOC(c1cncnc1)(c1ccc(-c2ccc(OC(F)(F)F)cc2F)cn1)C(C)C` (stereo not shown) [Compound 191], for which the pest or weed control at 100 g/ha was < 40% under setting [3] and 80 to 100% under setting [4].

Consider `CC(C)(C)C(O)(c1cncnc1)c1ccc(-c2ccc(F)cc2F)cn1` (stereo not shown) [Compound 164], for which the pest or weed control at 100 g/ha by setting is: under setting [3], 80 to 100%; under setting [4], 80 to 100%.

On to `CC(C)(C)C(O)(c1ccc(-c2ccc(OC(F)(F)F)cc2)cn1)c1cccnc1Cl` (stereo not shown) [Compound 235], for which the pest or weed control at 100 g/ha fell in the range of 60 to 79% under setting [3] and 80 to 100% under setting [4].

With `COc1ncncc1C(O)(c1ccc(-c2ccc(OC(F)(F)F)cc2F)cn1)C(C)(C)C` (stereo not shown) [Compound 187], the pest or weed control at 100 g/ha reads like this: under setting [3], 80 to 100%; under setting [4], 80 to 100%.

As to `OC(c1cncnc1)(c1ccc(-c2ccc(OC(F)(F)F)cc2F)cn1)C1CC1` (stereo not shown) [Compound 184], the pest or weed control at 100 g/ha was < 40% under setting [3] and 40 to 59% under setting [4].

As to `COc1ncncc1C(O)(c1ccc(-c2ccc(C(C)(C)C#N)cc2F)cn1)C(C)(C)C` (stereo not shown) [Compound 256], the pest or weed control at 100 g/ha was 80 to 100% under setting [3] and 80 to 100% under setting [4].

On to `CC(C)(C)C(O)(c1ccc(-c2ccc(OCC(F)(F)F)nc2)cn1)c1cnccn1` (stereo not shown) [Compound 180], for which the pest or weed control at 100 g/ha under setting [3] was in the range of 60 to 79% and the pest or weed control at 100 g/ha under setting [4] was 40 to 59%.

On to `CC#CC(O)(c1cncnc1)c1ccc(-c2ccc(OC(F)(F)F)cc2F)cn1` (stereo not shown) [Compound 185], for which the pest or weed control at 100 g/ha reads like this: under setting [3], < 40%; under setting [4], 80 to 100%.

As to `COc1ncncc1C(O)(c1ccc(-c2ccc(C(C)(F)F)cc2)cn1)C(C)(C)C` (stereo not shown) [Compound 246], the pest or weed control at 100 g/ha under setting [3] lay in the range of 60 to 79% and the pest or weed control at 100 g/ha under setting [4] was 80 to 100%.

On to `CC#CC(O)(c1cncnc1)c1ccc(-c2ccc(OC(F)(F)F)cc2)cn1` (stereo not shown) [Compound 266], for which the pest or weed control at 100 g/ha under setting [1] was < 40% and the pest or weed control at 100 g/ha under setting [2] lay in the range of 60 to 79%.

As for `CCOC(CC)(c1cncnc1)c1ccc(-c2ccc(OC(F)(F)F)cc2)cn1` (stereo not shown) [Compound 244], the pest or weed control at 100 g/ha is < 40% under setting [3] and 40 to 59% under setting [4].

For `CC(C)(C#N)c1ccc(-c2ccc(C(O)(c3cncnc3)C(C)(C)C)nc2)nc1` (stereo not shown) [Compound 183], the pest or weed control at 100 g/ha is, setting by setting: under setting [3], 80 to 100%; under setting [4], 80 to 100%.

Regarding `C#CCOC(C)(c1cncnc1)c1ccc(-c2ccc(OC(F)(F)F)cc2F)cn1` (stereo not shown) [Compound 237], the pest or weed control at 100 g/ha is, setting by setting: under setting [3], < 40%; under setting [4], 40 to 59%.

As to `COc1ncncc1C(O)(c1ccc(-c2ccc(OCC(F)(F)F)cn2)cn1)C(C)(C)C` (stereo not shown) [Compound 186], the pest or weed control at 100 g/ha fell in the range of 40 to 59% under setting [3] and 80 to 100% under setting [4].

`CC#CC(OCC)(c1cncnc1)c1ccc(-c2ccc(OC(F)(F)F)cc2F)cn1` (stereo not shown) [Compound 204]: the pest or weed control at 100 g/ha by setting is: under setting [3], < 40%; under setting [4], 60 to 79%.

As for `Cc1cc(OC(F)(F)F)ccc1-c1ccc(C(O)(c2cnccn2)C(C)(C)C)nc1` (stereo not shown) [Compound 224], the pest or weed control at 100 g/ha reads like this: under setting [3], 40 to 59%; under setting [4], 60 to 79%.

As to `C#CCOC(C#CC)(c1cncnc1)c1ccc(-c2ccc(OC(F)(F)F)cc2)cn1` (stereo not shown) [Compound 270], the pest or weed control at 100 g/ha runs as follows: under setting [1], < 40%; under setting [2], 40 to 59%.

As for `CC(C)(C)C(O)(c1ccc(-c2ccc(OC(F)(F)F)cn2)cn1)c1cnccn1` (stereo not shown) [Compound 174], the pest or weed control at 100 g/ha runs as follows: under setting [3], 60 to 79%; under setting [4], 80 to 100%.

Regarding `CCC(OC)(c1cncnc1)c1ccc(-c2ccc(OC(F)(F)F)cc2)cn1` (stereo not shown) [Compound 213], the pest or weed control at 100 g/ha reads like this: under setting [3], 60 to 79%; under setting [4], 60 to 79%.

As for `CO/N=C(/C)c1ccc(-c2ccc(C(O)(c3cncnc3)C(C)(C)C)nc2)cc1` (stereo not shown) [Compound 132, (Z)-1-(4-(6-(1-hydroxy-2,2-dimethyl-1-(pyrimidin-5-yl)propyl)pyridin-3-yl)phenyl)ethanone O-methyl oxime], the pest or weed control at 100 g/ha was 80 to 100% under setting [3] and 80 to 100% under setting [4].

Regarding `CC(C)(C)C(O)(Cc1cccnc1)c1ccc(-c2ccc(OCC(F)(F)F)nc2)cn1` (stereo not shown) [Compound 234], the pest or weed control at 100 g/ha was in the range of 40 to 59% under setting [3] and 60 to 79% under setting [4].

Values taken from US10167300B2, “Metalloenzyme inhibitor compounds as fungicides” (priority 2014, dated 2019).
